Data from BigSolDB 2.1.

Cc1ccc[n+](CCCC[n+]2cccc(C)c2)c1.F[P-](F)(F)(F)(F)F.F[P-](F)(F)(F)(F)F
solubility (mole fraction)
Details | 288.15 K | 293.15 K | 298.15 K | 303.15 K | 308.15 K | 313.15 K | 318.15 K | 323.15 K | 328.15 K | 333.15 K
in 2-butanone | 0.00289 | 0.00328 | 0.00379 | 0.00439 | 0.00496 | 0.00556 | 0.00623 | 0.00706 | 0.00771 | 0.00856
in acetophenone | – | – | 0.000748 | 0.00103 | 0.00138 | 0.00183 | 0.0024 | 0.00311 | 0.00428 | 0.00556
in acetylacetone | 0.00119 | 0.00157 | 0.00214 | 0.00282 | 0.00368 | 0.00462 | 0.00598 | 0.00807 | 0.0101 | 0.0136
in cyclohexanone | 0.000205 | 0.000333 | 0.00051 | 0.000746 | 0.000967 | 0.00121 | 0.00146 | 0.00164 | 0.0018 | 0.00186
in water | 2e-06 | 3e-06 | 5e-06 | 8e-06 | 1.4e-05 | 2.4e-05 | 3.9e-05 | 6.3e-05 | 9.8e-05 | 0.000157
